# From patent US20240368133A1, “Compounds for the Treatment of Pain, in Particular, Neuropathic Pain, and/or Other Diseases or Disorders that are Associated with AT2R and/or AT2R Mediated Signaling” (Confo Therapeutics N.V., priority 2021, published 2024)
# Structures can show the parent of a compound that is named as a salt.
# Target: human AT1R (Homo sapiens (Human), UniProt P30556)
# Assay: Counterscreen radioligand binding assay, displacement of 125I-[Sar1, Ile8]-Angiotensin II, hAT1R WT
# Conditions: 125I-[Sar1, Ile8]-Ang II, compound at 1 μM, semi-quantitative score, read-out: % Displaced radioligand at 1 μM
# Experimental: (§1) All synthesized ligands were evaluated in a radioligand assay by displacing ^125I-[Sar1, Ile8]-Angiotensin II (Perkin Elmer, NEX248050UC) from human AT2R fused to Cb23 or human/rodent/cynomolgus/minipig/dog WT AT2R in HEK-293 cells membrane preparations, using C21 (Vicore Pharma) and Angiotensin II (endogenous ligand) as reference. The affinity was determined using an eight-point dose-response curve, each point performed in duplicates. The compounds were also evaluated in a counterscreen binding assay for displacement of ^125I-[Sar1, Ile8]-Angiotensin II binding to human AT1R in HEK-293 cell membranes. For AT1R, the percent displacement was determined at 1 μM and […] (in duplicates) or using an eight-point dose-response curve, each point performed in duplicates with Candesartan and Losartan used as reference.
# (§2) For the AT2R/AT1R binding assays, cell membranes, expressing AT2R_Cb23, AT2R or AT1R, were incubated with 0.05 nM ^125I-[Sarl, Ile8]-Ang II. The ligand competition assay was performed in a total volume of 100 μL assay buffer (50 mM Tris, 5 mM MgCl2, 1 mM EDTA, 0.1% BSA, pH 7.4), at concentrations ranging from […] to 10 μM. For each experiment, each ligand concentration was tested in duplicate. Non-specific binding (NSB) was determined by the inclusion of 10 μM unlabeled [Sarl]-Ang II (Sigma Aldrich). The reaction was initiated by the addition of radioligand, after which the plates were incubated at 25° C. for one hour. The reaction was terminated by rapid filtration using a vacuum harvester, applying six washes with 100 μL of ice-cold wash buffer (50 mM Tris.HCl, pH 7.4). The filter plates GF/C (Perkin Elmer) were pre-soaked in 0.5% PEI. The residual amount of radioactivity was determined via liquid scintillation counting. IC50 values, representing the concentration at which each ligand displaced 50% of ^125I-[Sarl, Ile8]-Ang II, were calculated using GraphPad Prism 7.02 by applying a Non-linear regression equation (variable slope, four parameters) on the data. The obtained values serve as affinity estimates for each ligand and their ability to compete against the radioligand for binding with AT2R or AT1R, respectively.
# Sequence of human AT1R (P30556 whole entry): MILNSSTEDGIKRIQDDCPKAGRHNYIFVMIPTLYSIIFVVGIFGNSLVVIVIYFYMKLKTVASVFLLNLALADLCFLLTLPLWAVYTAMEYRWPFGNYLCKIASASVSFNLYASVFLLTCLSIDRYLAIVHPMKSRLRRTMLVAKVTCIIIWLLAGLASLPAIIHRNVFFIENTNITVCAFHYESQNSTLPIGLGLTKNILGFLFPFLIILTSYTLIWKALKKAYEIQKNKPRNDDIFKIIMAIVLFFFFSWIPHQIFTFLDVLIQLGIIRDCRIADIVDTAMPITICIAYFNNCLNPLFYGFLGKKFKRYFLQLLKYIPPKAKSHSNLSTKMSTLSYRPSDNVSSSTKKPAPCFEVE
row,SMILES,inhibition at 1 µM
1,"c1ccc2sc(CN3CCN(c4cc(NCC5CC5)ccc4-c4nn[nH]n4)CC3)nc2c1 [Compound A-62, 3-[4-(1,3-benzothi-azol-2-ylmethyl)-piperazin-1-yl]-N-(cyclopropylmeth-yl)-4-(2H-tetrazol-5-yl)aniline]",< 30%

# Same assay, conditions: 125I-[Sar1, Ile8]-Ang II, compound at 10 μM, semi-quantitative score, read-out: % Displaced radioligand at 10 μM
row,SMILES,inhibition at 10 µM
1,"c1ccc2sc(CN3CCN(c4cc(NCC5CC5)ccc4-c4nn[nH]n4)CC3)nc2c1 [Compound A-62, 3-[4-(1,3-benzothi-azol-2-ylmethyl)-piperazin-1-yl]-N-(cyclopropylmeth-yl)-4-(2H-tetrazol-5-yl)aniline]",< 30%

# Target: human AT2R fused to Cb23 (Homo sapiens, UniProt P50052)
# Sequence (P50052 whole entry, looked up, the tested form may be a part): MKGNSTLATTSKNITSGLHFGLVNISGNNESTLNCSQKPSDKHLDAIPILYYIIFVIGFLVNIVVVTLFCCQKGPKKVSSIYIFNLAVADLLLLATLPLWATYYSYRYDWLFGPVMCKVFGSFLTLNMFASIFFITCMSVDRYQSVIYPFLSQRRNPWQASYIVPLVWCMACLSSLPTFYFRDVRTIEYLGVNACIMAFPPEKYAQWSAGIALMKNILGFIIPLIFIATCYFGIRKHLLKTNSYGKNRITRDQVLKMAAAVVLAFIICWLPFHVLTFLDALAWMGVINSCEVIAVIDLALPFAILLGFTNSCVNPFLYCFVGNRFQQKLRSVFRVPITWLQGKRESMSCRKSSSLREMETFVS
# Assay: Radioligand binding assay, displacement of 125I-[Sar1, Ile8]-Angiotensin II, hAT2R Cb23
# Conditions: not given
# Experimental: as §1, §2
row,SMILES,IC50
1,"c1ccc2sc(CN3CCN(c4cc(NC5CC5)ccc4-c4nn[nH]n4)CC3)nc2c1 [Compound A-61, 3-[4-(1,3-benzothi-azol-2-ylmethyl)-piperazin-1-yl]-N-cyclopropyl-4-(2H-tetrazol-5-yl)aniline hydrochloride]",14.7 µM

# Same assay, conditions: displacement of 125I-[Sar1, Ile8]-Angiotensin II, human AT2R fused to Cb23, HEK-293 cell membrane preparations; read-out: Binding affinity on hAT2R_Cb23 IC50
row,SMILES,IC50
1,"O=C(O)c1ccccc1CN1CCN(c2nc3ccccc3s2)CC1 [Compound A-01, 2-[[4-(1,3-benzothiazol-2-yl)piperazin-1-yl]methyl]benzoic acid]",33.6 µM
2,"CCS(=O)(=O)NC(=O)c1ccccc1N1CCN(Cc2nc3ccccc3s2)CC1 [Compound A-04, 2-[4-(1,3-benzothiazol-2-ylmethyl)piperazin-1-yl]-N-ethylsulfonyl-benzamide]",22.8 µM
3,"O=[N+]([O-])c1ccc2nc(N3CCN(Cc4ccccc4-c4nn[nH]n4)CC3)sc2c1 [Compound A-07, 6-nitro-2-[4-[[2-(2H-tetrazol-5-yl)-phenyl]methyl]-piperazin-1-yl]-1,3-benzothiazole]",28.8 µM
4,Cn1c(CN2CCN(c3ccccc3-c3nn[nH]n3)CC2)nc2ccccc21 [Compound A-15],42.9 µM
5,"Cc1ccc(-c2nn[nH]n2)c(N2CCN(Cc3nc4ccccc4n3C)CC2)c1 [Compound A-16, 1-methyl-2-[[4-[5-methyl-2-(2H-tetrazol-5-yl)phen-yl]piperazin-1-yl]-methyl]benzimid-azole]",21.7 µM
6,"O=c1[nH]c(CN2CCN(c3ccccc3-c3nn[nH]n3)CC2)nc2ccccc12 [Compound A-26, 2-[[4-[2-(2H-tetrazol-5-yl)phen-yl]piperazin-1-yl]-methyl]-3H-quin-azolin-4-one]",111 µM
7,"Cc1ccc(-c2nn[nH]n2)c(N2CCN(Cc3nc4ccccc4c(=O)[nH]3)CC2)c1 [Compound A-27, 2-[[4-[5-methyl-2-(2H-tetrazol-5-yl)-phenyl]piperazin-1-yl]methyl]-3H-quinazolin-4-one]",35.9 µM
8,"O=c1[nH]c(CN2CCN(c3cc(C(F)(F)F)ccc3-c3nn[nH]n3)CC2)nc2ccccc12 [Compound A-29, 2-[[4-[2-(2H-tetrazol-5-yl)-5-(trifluoromethyl)-phenyl]piperazin-1-yl]methyl]-3H-quinazolin-4-one]",42.4 µM
9,"CC(C)=Cc1ccc(-c2nn[nH]n2)c(N2CCN(Cc3nc4ccccc4c(=O)[nH]3)CC2)c1 [Compound A-30, 2-[[4-[5-(2-methyl-prop-1-enyl)-2-(2H-tetrazol-5-yl)-phenyl]piperazin-1-yl]methyl]-3H-quinazolin-4-one]",114 µM
10,"COCCOc1ccc(-c2nn[nH]n2)c(N2CCN(Cc3nc4ccccc4s3)CC2)c1 [Compound A-56, 2-[[4-[5-(2-meth-oxyethoxy)-2-(2H-tetrazol-5-yl)phen-yl]piperazin-1-yl]-methyl]-1,3-benzo-thiazole]",61.7 µM
11,"c1ccc2sc(CN3CCN(c4cc(OCC5COC5)ccc4-c4nn[nH]n4)CC3)nc2c1 [Compound A-58, 2-[[4-[5-(oxetan-3-ylmethoxy)-2-(2H-tetrazol-5-yl)phen-yl]piperazin-1-yl]-methyl]-1,3-benzo-thiazole]",17.2 µM
12,"COCCNc1ccc(-c2nn[nH]n2)c(N2CCN(Cc3nc4ccccc4s3)CC2)c1 [Compound A-63, 3-[4-(1,3-benzothi-azol-2-ylmethyl)-piperazin-1-yl]-N-(2-methoxyethyl)-4-(2H-tetrazol-5-yl)aniline]",21.6 µM
13,"CN1CCN(c2ccc(-c3nn[nH]n3)c(N3CCN(Cc4nc5ccccc5s4)CC3)c2)CC1 [Compound A-66, 2-[[4-[5-(4-methyl-piperazin-1-yl)-2-(2H-tetrazol-5-yl)-phenyl]piperazin-1-yl]methyl]-1,3-benzothiazole]",11.8 µM
14,"CC(C)Cc1ccc(-c2nn[nH]n2)c(N2CCN(Cc3cc(=O)n4c(ccn4C)n3)CC2)c1 [Compound A-74, 5-[[4-[5-isobutyl-2-(2H-tetrazol-5-yl)-phenyl]piperazin-1-yl]methyl]-1-methyl-pyrazolo-[1,5-a]pyrimidin-7-one]",11.7 µM
15,"c1cnnc(CN2CCN(c3cc(C4CC4)ccc3-c3nn[nH]n3)CC2)c1 [Compound A-91, 3-[[4-[5-cyclopropyl-2-(2H-tetrazol-5-yl)phenyl]piperazin-1-yl]methyl]pyridazine]",23.7 µM
16,Cc1nnc(CN2CCN(c3cc(CC(C)C)ccc3-c3nn[nH]n3)CC2)o1 [Compound A-92],15.6 µM
17,"Cc1nc(=O)cc(CN2CCN(c3cc(CC(C)C)ccc3-c3nn[nH]n3)CC2)[nH]1 [Compound A-95, 6-[[4-[5-isobutyl-2-(2H-tetrazol-5-yl)phenyl]piperazin-1-yl]methyl]-2-methyl-1H-pyrimidin-4-one]",43.3 µM
18,"Cc1noc(CN2CCN(c3cc(CC(C)C)ccc3-c3nn[nH]n3)CC2)n1 [Compound A-96, 5-[[4-[5-isobutyl-2-(2H-tetrazol-5-yl)-phenyl]piperazin-1-yl]methyl]-3-methyl-1,2,4-oxa-diazole]",13.2 µM
19,Cc1nccc(CN2CCN(c3cc(CC(C)C)ccc3-c3nn[nH]n3)CC2)n1 [Compound A-99],33.9 µM
20,"Cc1cc(=O)nc(CN2CCN(c3cc(CC(C)C)ccc3-c3nn[nH]n3)CC2)[nH]1 [Compound A-100, 2-[[4-[5-isobutyl-2-(2H-tetrazol-5-yl)phenyl]piperazin-1-yl]methyl]-6-methyl-1H-pyrimidin-4-one]",16.5 µM
21,"Cc1ncc(CN2CCN(c3cc(CC(C)C)ccc3-c3nn[nH]n3)CC2)cn1 [Compound A-103, 5-[[4-[5-isobutyl-2-(2H-tetrazol-5-yl)-phenyl]piperazin-1-yl]methyl]-2-methyl-pyrimidine]",12.2 µM
22,"CC(C)Cc1ccc(-c2nn[nH]n2)c(N2CCN(Cc3cccc(C#N)n3)CC2)c1 [Compound A-107, 6-[[4-[5-isobutyl-2-(2H-tetrazol-5-yl)-phenyl]piperazin-1-yl]methyl]pyr-idine-2-carbonitrile]",54.9 µM
23,"CC(C)Cc1ccc(-c2nn[nH]n2)c(N2CCN(Cc3ncon3)CC2)c1 [Compound A-108, 3-[[4-[5-isobutyl-2-(2H-tetrazol-5-yl)-phenyl]piperazin-1-yl]methyl]-1,2,4-oxadiazole]",41.7 µM
24,"CC(C)Cc1ccc(-c2nn[nH]n2)c(N2CCN(Cc3cn(C)cn3)CC2)c1 [Compound A-109, 1-[5-isobutyl-2-(2H-tetrazol-5-yl)phen-yl]-4-[(1-methyl-imidazol-4-yl)meth-yl]piperazine]",40.4 µM
25,"CC(C)Cc1ccc(-c2nn[nH]n2)c(N2CCN(Cc3ccn(C)n3)CC2)c1 [Compound A-110, 1-[5-isobutyl-2-(2H-tetrazol-5-yl)phen-yl]-4-[(1-methyl-pyrazol-3-yl)meth-yl]piperazine]",17.8 µM
26,"Cc1ncc(CN2CCN(c3cc(CC(C)C)ccc3-c3nn[nH]n3)CC2)n1C [Compound A-114, 1-[(2,3-dimethyl-imidazol-4-yl)meth-yl]-4-[5-isobutyl-2-(2H-tetrazol-5-yl)-phenyl]piperazine]",18.7 µM
27,"COc1cc(N2CCN(Cc3nc4ccccc4s3)CC2)c(-c2nn[nH]n2)cc1F [Compound A-117, 2-[[4-[4-fluoro-5-methoxy-2-(2H-tetrazol-5-yl)phen-yl]piperazin-1-yl]-methyl]-1,3-benzo-thiazole]",52.6 µM
28,"Fc1cc(-c2nn[nH]n2)c(N2CCN(Cc3nc4ccccc4s3)CC2)cc1C1CC1 [Compound A-124, 2-[[4-[5-cycloprop-yl-4-fluoro-2-(2H-tetrazol-5-yl)phen-yl]piperazin-1-yl]-methyl]-1,3-benzo-thiazole]",18.1 µM
29,"Cc1cc(-c2nn[nH]n2)c(N2CCN(Cc3nc4ccccc4s3)CC2)cc1C1CC1 [Compound A-126, 2-[[4-[5-cycloprop-yl-4-methyl-2-(2H-tetrazol-5-yl)phen-yl]piperazin-1-yl]-methyl]-1,3-benzo-thiazole]",22.6 µM
30,"CCNc1cc(-c2nn[nH]n2)c(N2CCN(Cc3nc4ccccc4s3)CC2)cc1C1CC1 [Compound A-130, 4-[4-(1,3-benzothi-azol-2-ylmethyl)-piperazin-1-yl]-2-cyclopropyl-N-eth-yl-5-(2H-tetrazol-5-yl)aniline]",28.8 µM
